Test results as given in US20090099141A1, “COMPOSITIONS AND METHODS FOR TREATING VITAMIN D DEFICIENCIES” (priority 2005, published 2009).

Test: Serum level of 25(OH)D in an adult human after oral 250 μg (10,000 IU) vitamin D3 tablets (Nichols method)
Format: in vivo
Method: During the winter months an adult living in a northern region of the United States receiving no vitamin D supplements other than through their normal diet is found to have a serum level of 25(OH)D of about 25 nmole/L. The person is provided with four (4) blister packs, each pack containing four (4) 250 μg (10,000 IU) of vitamin D3. The blister pack has instructions to take one tablet by mouth once a week. The person is instructed to take all of the tablets according to instructions provided on the pack. Blood samples are drawn each week just before a tablet is taken and the serum levels of 25(OH)D are determined. Serum levels of 25(OH)D can be determined by the Nichols method (catalog no. 40-2135; Nichols Institute Diagnostics). Within approximately two months, serum levels increase by about 15 to about 20 nmole/L to a level of at least about 40 nmole/L.
During the winter months an adult living in a northern region of the United States receiving no vitamin D supplements other than through their normal diet is found to have a serum level of 25(OH)D of about 18 nmole/L. The person is provided with four (4) blister packs, each pack having one tablet for each day of the month [about thirty (30) tablets], and each tablet containing 250 μg (10,000 IU) of vitamin D3. The blister pack has instructions to take one tablet by mouth once a day, noting on the pack, where indicated, the date and time each tablet is taken. The person is instructed to take all of the tablets according to instructions provided on the pack. Blood samples are drawn after one (1) week and each week thereafter at approximately the same time and the serum levels of 25(OH)D are determined. Serum levels of 25(OH)D can be determined by the Nichols method (catalog no. 40-2135; Nichols Institute Diagnostics). Within approximately two months, serum levels increase by at least 100 nmole/L to a level of at least about 120 nmole/L and, within about 4 months, increase by at least about 180 nmole/L to a level of at least about 200 nmole/L.
During the winter months an adult living in a northern region of the United States receiving no vitamin D supplements other than through their normal diet is found to have a serum level of 25(OH)D of about 35 nmole/L. The person is provided with four (4) blister packs, each pack containing fifteen (15) 250 μg (10,000 IU) of vitamin D3. The blister pack has instructions to take one tablet by mouth once every other day, noting on the pack, where indicated, the date and time each tablet is taken. The person is instructed to take all of the tablets according to instructions provided on the pack. Blood samples are drawn each week at approximately the same time and the serum levels of 25(OH)D are determined. Serum levels of 25(OH)D can be determined by the Nichols method (catalog no. 40-2135; Nichols Institute Diagnostics). Within approximately one-month serum levels increase by at least about 60-70 nmole/L to a level of at least about 100 nmole/L and within about 4 months […] a level of about 120 nmole/L.

[1] = adult female, baseline about 18 nmole/L, 250 μg (10,000 IU) tablet by mouth once a day, within about 4 months
[2] = adult female, baseline about 18 nmole/L, 250 μg (10,000 IU) tablet by mouth once a day, within approximately two months
[3] = adult male, baseline about 35 nmole/L, 250 μg (10,000 IU) tablet by mouth once every other day, within approximately one month

C=C1CC[C@H](O)C/C1=C/C=C1\CCC[C@]2(C)[C@@H]([C@H](C)CCCC(C)C)CC[C@@H]12 [vitamin D3]
increase in serum level of 25(OH)D [1]: at least 180 nmole/L
serum level of 25(OH)D [1]: at least 200 nmole/L
increase in serum level of 25(OH)D [2]: at least 100 nmole/L
serum level of 25(OH)D [2]: at least 120 nmole/L
serum level of 25(OH)D (adult male, baseline about 25 nmole/L, 250 μg (10,000 IU) tablet by mouth once a week, within approximately two months): at least 40 nmole/L
serum level of 25(OH)D (adult male, baseline about 35 nmole/L, 250 μg (10,000 IU) tablet by mouth once every other day, within about 4 months): about 120 nmole/L
increase in serum level of 25(OH)D [3]: 60 to 70 nmol/L
serum level of 25(OH)D [3]: at least 100 nmole/L
